Test results taken from PubChem BioAssay (NCI).
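Cells were grown in 96-well plates and exposed to each compound for 48 hours at five concentrations; endpoints were interpolated linearly between bracketing concentrations, or set to the highest concentration if not reached. GI50 is the concentration that inhibits growth by half. TGI: total growth inhibition.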

Columns and labels:
Experiment in all cases: DTP human tumour cell line panel, 48 h
786-0 renal = test system: 786-0 renal
A549 NSCLC = test system: A549 NSCLC
ACHN renal = test system: ACHN renal
BT-549 breast = test system: BT-549 breast
CAKI-1 renal = test system: CAKI-1 renal
COLO 205 colon = test system: COLO 205 colon
DU-145 prostate = test system: DU-145 prostate
EKVX NSCLC = test system: EKVX NSCLC
HCC-2998 colon = test system: HCC-2998 colon
HCT-116 colon = test system: HCT-116 colon
HCT-15 colon = test system: HCT-15 colon
HL-60(TB) leukemia = test system: HL-60(TB) leukemia
HOP-62 NSCLC = test system: HOP-62 NSCLC
HS 578T breast = test system: HS 578T breast
HT29 colon = test system: HT29 colon
IGROV1 ovarian = test system: IGROV1 ovarian
K-562 leukemia = test system: K-562 leukemia
KM12 colon = test system: KM12 colon
LOX IMVI melanoma = test system: LOX IMVI melanoma
M14 melanoma = test system: M14 melanoma
MALME-3M melanoma = test system: MALME-3M melanoma
MCF7 breast = test system: MCF7 breast
MDA-MB-231 breast = test system: MDA-MB-231 breast
MDA-MB-435 = test system: MDA-MB-435
MOLT-4 leukemia = test system: MOLT-4 leukemia
NCI-H226 lung = test system: NCI-H226 lung
NCI-H23 lung = test system: NCI-H23 lung
NCI-H460 lung = test system: NCI-H460 lung
NCI-H522 lung = test system: NCI-H522 lung
NCI/ADR-RES ovarian = test system: NCI/ADR-RES ovarian
OVCAR-3 ovarian = test system: OVCAR-3 ovarian
OVCAR-4 ovarian = test system: OVCAR-4 ovarian
OVCAR-5 ovarian = test system: OVCAR-5 ovarian
OVCAR-8 ovarian = test system: OVCAR-8 ovarian
PC-3 prostate = test system: PC-3 prostate
RPMI-8226 leukemia = test system: RPMI-8226 leukemia
RXF 393 renal = test system: RXF 393 renal
SF-268 CNS = test system: SF-268 CNS
SF-295 CNS = test system: SF-295 CNS
SF-539 CNS = test system: SF-539 CNS
SK-MEL-2 melanoma = test system: SK-MEL-2 melanoma
SK-MEL-28 melanoma = test system: SK-MEL-28 melanoma
SK-MEL-5 melanoma = test system: SK-MEL-5 melanoma
SK-OV-3 ovarian = test system: SK-OV-3 ovarian
SN12C renal = test system: SN12C renal
SNB-19 CNS = test system: SNB-19 CNS
SNB-75 CNS = test system: SNB-75 CNS
SR leukemia = test system: SR leukemia
SW-620 colon = test system: SW-620 colon
T-47D breast = test system: T-47D breast
TK-10 renal = test system: TK-10 renal
U251 CNS = test system: U251 CNS
UACC-257 melanoma = test system: UACC-257 melanoma
UACC-62 melanoma = test system: UACC-62 melanoma
UO-31 renal = test system: UO-31 renal

Cc1cc(S(N)(=O)=O)c(S/C(CC(C)C)=N\Nc2ccc([N+](=O)[O-])cc2)cc1Cl
GI50 (786-0 renal): 7.15 µM | TGI (786-0 renal): 19.8 µM | GI50 (A549 NSCLC): 9.46 µM | TGI (A549 NSCLC): 27.2 µM | GI50 (ACHN renal): 5.44 µM | TGI (ACHN renal): 17.4 µM | GI50 (BT-549 breast): 17.7 µM | TGI (BT-549 breast): 31.7 µM | GI50 (CAKI-1 renal): 2.24 µM | TGI (CAKI-1 renal): 6.85 µM | GI50 (COLO 205 colon): 6.46 µM | TGI (COLO 205 colon): 20.9 µM | GI50 (DU-145 prostate): 14.4 µM | TGI (DU-145 prostate): 28 µM | GI50 (EKVX NSCLC): 16.6 µM | TGI (EKVX NSCLC): 31.3 µM | GI50 (HCC-2998 colon): 2.46 µM | TGI (HCC-2998 colon): 6.27 µM | GI50 (HCT-116 colon): 3.53 µM | TGI (HCT-116 colon): 13 µM | GI50 (HCT-15 colon): 5.22 µM | TGI (HCT-15 colon): 31.2 µM | GI50 (HL-60(TB) leukemia): 7.07 µM | TGI (HL-60(TB) leukemia): > 100 µM | GI50 (HOP-62 NSCLC): 13.5 µM | TGI (HOP-62 NSCLC): 26.4 µM | GI50 (HS 578T breast): 11.9 µM | TGI (HS 578T breast): 30.1 µM | GI50 (HT29 colon): 3.88 µM | TGI (HT29 colon): 15.3 µM | GI50 (IGROV1 ovarian): 6.77 µM | TGI (IGROV1 ovarian): 21.2 µM | GI50 (K-562 leukemia): 5.82 µM | TGI (K-562 leukemia): 97 µM | GI50 (KM12 colon): 3.32 µM | TGI (KM12 colon): 13.2 µM | GI50 (LOX IMVI melanoma): 5.81 µM | TGI (LOX IMVI melanoma): 29.2 µM | GI50 (M14 melanoma): 4.99 µM | TGI (M14 melanoma): 16.5 µM | GI50 (MALME-3M melanoma): 12.5 µM | TGI (MALME-3M melanoma): 25 µM | GI50 (MCF7 breast): 2.36 µM | TGI (MCF7 breast): 7.27 µM | GI50 (MDA-MB-231 breast): 2.77 µM | TGI (MDA-MB-231 breast): 9.52 µM | GI50 (MDA-MB-435): 2.92 µM | TGI (MDA-MB-435): 9.42 µM | GI50 (MOLT-4 leukemia): 4.57 µM | TGI (MOLT-4 leukemia): > 100 µM | GI50 (NCI-H226 lung): 2.82 µM | TGI (NCI-H226 lung): 7.77 µM | GI50 (NCI-H23 lung): 3.74 µM | TGI (NCI-H23 lung): 12.6 µM | GI50 (NCI-H460 lung): 4.09 µM | TGI (NCI-H460 lung): 17.8 µM | GI50 (NCI-H522 lung): 18.8 µM | TGI (NCI-H522 lung): 72.2 µM | GI50 (NCI/ADR-RES ovarian): 5.9 µM | TGI (NCI/ADR-RES ovarian): 19.2 µM | GI50 (OVCAR-3 ovarian): 3.19 µM | TGI (OVCAR-3 ovarian): 7.07 µM | GI50 (OVCAR-4 ovarian): 5.01 µM | TGI (OVCAR-4 ovarian): 20.5 µM | GI50 (OVCAR-5 ovarian): 14.8 µM | TGI (OVCAR-5 ovarian): 27.9 µM | GI50 (OVCAR-8 ovarian): 16.9 µM | TGI (OVCAR-8 ovarian): 52.8 µM | GI50 (PC-3 prostate): 3.16 µM | TGI (PC-3 prostate): 11.9 µM | GI50 (RPMI-8226 leukemia): 2.58 µM | TGI (RPMI-8226 leukemia): 7.28 µM | GI50 (RXF 393 renal): 4.13 µM | TGI (RXF 393 renal): 19 µM | GI50 (SF-268 CNS): 7.21 µM | TGI (SF-268 CNS): 23.1 µM | GI50 (SF-295 CNS): 2.31 µM | TGI (SF-295 CNS): 5.7 µM | GI50 (SF-539 CNS): 16.2 µM | TGI (SF-539 CNS): 29.7 µM | GI50 (SK-MEL-2 melanoma): 8.22 µM | TGI (SK-MEL-2 melanoma): 34.6 µM | GI50 (SK-MEL-28 melanoma): 13.9 µM | TGI (SK-MEL-28 melanoma): 27.8 µM | GI50 (SK-MEL-5 melanoma): 11 µM | TGI (SK-MEL-5 melanoma): 23.2 µM | GI50 (SK-OV-3 ovarian): 13.7 µM | TGI (SK-OV-3 ovarian): 28.2 µM | GI50 (SN12C renal): 2.76 µM | TGI (SN12C renal): 9.88 µM | GI50 (SNB-19 CNS): 13.2 µM | TGI (SNB-19 CNS): 27.3 µM | GI50 (SNB-75 CNS): 4.05 µM | TGI (SNB-75 CNS): 18.7 µM | GI50 (SR leukemia): 1.84 µM | TGI (SR leukemia): 6.26 µM | GI50 (SW-620 colon): 8.82 µM | TGI (SW-620 colon): 29.9 µM | GI50 (T-47D breast): 3.1 µM | TGI (T-47D breast): 8.33 µM | GI50 (TK-10 renal): 2.93 µM | TGI (TK-10 renal): 8.33 µM | GI50 (U251 CNS): 10.6 µM | TGI (U251 CNS): 25.5 µM | GI50 (UACC-257 melanoma): 16.4 µM | TGI (UACC-257 melanoma): 33.8 µM | GI50 (UACC-62 melanoma): 3.13 µM | TGI (UACC-62 melanoma): 8.89 µM | GI50 (UO-31 renal): 11.1 µM | TGI (UO-31 renal): 23.6 µM
